Test results as given in patent US20110124523A1, “High Throughput Method for Detecting Apoptosis of Embryonic Stages of Metazoan Helminthic Parasites” (INSTITUTE OF LIFE SCIENCES, priority 2009, published 2011).
Where “and” joins values, the source holds several entries; their conditions need not be identical. Identical values can stand only once.

How the values were obtained:
[1] = test system: embryonic stages of S. digitata; assay: Intra cellular activation of caspase-3 like cysteine proteinases, anti active caspase-3-PE staining; assay type: cell-based, Setaria digitata; details: 24 hr
Protocol: Adult female filarial worms Setaria digitata were collected from the peritoneum of cattle, slaughtered at a nearby abattoir in sterile Hanks Balanced Salt Solution (HBSS) medium (Sigma H 2387-1L) and transported to the laboratory in a sterile container. The medium containing 1% glucose (Sigma G 7528), Penicillin 100 units/ml, Streptomycin 100 μg/ml (Sigma P 4333). And Amphotericin-B 0.25 μg/ml (Sigma A 2942) was buffered with NaHCO3 (Sigma S 5761). About 5 to 7 worms were taken in a petridish, washed three times in medium, dissected into small pieces in 10 ml of medium under sterile conditions and incubated at 37° C. for 30 minutes to allow the release of embryonic stages (eggs and microfilariae) into the medium. The embryonic stages were harvested into sterile 15 ml. centrifuge tubes and washed three times by centrifuging at 300 g for 10 minutes each with medium and the final pellet was suspended in 1 ml. of RPMI-1640 medium (Sigma R 8005) supplemented with 10% FBS (Sigma F 2442) The number of embryonic stages of S. digitata in the above preparation were counted using light microscope, and the suspension was taken in RPMI-1640 medium containing 10% FBS at 1×10^5 embryonic stages/ml. One ml. each was dispensed into individual wells of a 24 well tissue culture plate. One set of wells was taken as untreated control containing only medium with 10% FBS. […] Motility of the Mf was scored under an inverted microscope. After appropriate treatment and incubation, each set of the cultured embryonic stages of S. digitata were harvested from the 24 well tissue culture plate separately in 15 ml. sterile centrifuge tubes, washed with PBS twice and stained as per requirement following manufacturer's instructions as described below. This was followed by two times washing with PBS and final suspension of the stained embryonic stages was taken in 0.5 ml of sheath fluid (BD Biosciences 342003) before their acquisition in the flow cytometer (BD FACS Calibur, Becten and Dickinson, USA). Analysis was performed on 10,000-acquired events depicted as Dot Plots and Histogram Plots using Cellquest Pro soft ware. All plots were representative of at least 3 experiments. […] After in vitro culture for 24 hours with apoptosis inducing reagents the embryonic stages were harvested in 15 ml. sterile centrifuge tubes and fixed for 60 minutes at 0° C. in 1% paraformaldehyde (Sigma P 6148) in PBS. The suspension was washed first with PBS and then with 1× permeabilisation buffer (eBioscience 00-8333-56) and finally resuspended in 100 μl of 1× permeabilisation buffer at 1×10^5 embryonic stages per ml. This suspension was then incubated for 45 minutes with 20 μl of anti active caspase-3-PE (BD Biosciences 559762). This was followed by washing with PBS twice and analysis by Flow cytometer.

[2] = test system: embryonic stages of S. digitata; assay: Intra cellular expression of CED-3 protein, flow cytometry; assay type: cell-based, Setaria digitata; details: 24 hr
Protocol: Adult female filarial worms Setaria digitata were collected from the peritoneum of cattle, slaughtered at a nearby abattoir in sterile Hanks Balanced Salt Solution (HBSS) medium (Sigma H 2387-1L) and transported to the laboratory in a sterile container. The medium containing 1% glucose (Sigma G 7528), Penicillin 100 units/ml, Streptomycin 100 μg/ml (Sigma P 4333). And Amphotericin-B 0.25 μg/ml (Sigma A 2942) was buffered with NaHCO3 (Sigma S 5761). About 5 to 7 worms were taken in a petridish, washed three times in medium, dissected into small pieces in 10 ml of medium under sterile conditions and incubated at 37° C. for 30 minutes to allow the release of embryonic stages (eggs and microfilariae) into the medium. The embryonic stages were harvested into sterile 15 ml. centrifuge tubes and washed three times by centrifuging at 300 g for 10 minutes each with medium and the final pellet was suspended in 1 ml. of RPMI-1640 medium (Sigma R 8005) supplemented with 10% FBS (Sigma F 2442) The number of embryonic stages of S. digitata in the above preparation were counted using light microscope, and the suspension was taken in RPMI-1640 medium containing 10% FBS at 1×10^5 embryonic stages/ml. One ml. each was dispensed into individual wells of a 24 well tissue culture plate. One set of wells was taken as untreated control containing only medium with 10% FBS. […] Motility of the Mf was scored under an inverted microscope. After appropriate treatment and incubation, each set of the cultured embryonic stages of S. digitata were harvested from the 24 well tissue culture plate separately in 15 ml. sterile centrifuge tubes, washed with PBS twice and stained as per requirement following manufacturer's instructions as described below. This was followed by two times washing with PBS and final suspension of the stained embryonic stages was taken in 0.5 ml of sheath fluid (BD Biosciences 342003) before their acquisition in the flow cytometer (BD FACS Calibur, Becten and Dickinson, USA). Analysis was performed on 10,000-acquired events depicted as Dot Plots and Histogram Plots using Cellquest Pro soft ware. All plots were representative of at least 3 experiments. The distinctly clustered populations obtained consistently in the Dot plots for the intra uterine embryonic stages of S. digitata (FIG. 1 a) were gated for Mfs (R-1) and eggs (R-2 and R-3) and analyzed for different assays for apoptosis as described below. After in vitro culture for 24 hours with apoptosis inducing reagents the embryonic stages were harvested in 15 ml, sterile centrifuge tubes and fixed for 60 minutes at 0° C. in 1% paraformaldehyde (Sigma P 6148) in PBS. The suspension was washed first with PBS and then with 1× permeabilisation buffer (eBioscience 00-8333-56) and finally resuspended in 100 μl of 1× permeabilisation buffer at 1×10^5 embryonic stages per ml. The intra cellular expression of CED-3 was scored by incubation of the fixed and permeabilised embryonic stages with primary goat antibodies—anti CED-3 (Santacruz sc-9192) followed by Probing with PE conjugated secondary anti goat IgG-PE (Santacruz sc-3747) antibodies. Incubation of both primary and secondary antibodies (both 1/100 diluted) was done successively in 1× permeabilisation buffer (e Bioscience 00-8333-56) for 1 hr and 45 minutes respectively. The suspension of stained embryonic stages was then washed with PBS twice and finally reading was taken by flow cytometry.

## OO [H2O2]
[1]; Eggs, 10 μM
  GMI (Geometric Mean Intensity) of Fluorescence, Caspase-3 Activation: 56.95 and 61.37 and 60.20
[1]; Microfilariae, 10 μM
  GMI (Geometric Mean Intensity) of Fluorescence, Caspase-3 Activation: 7.57 and 9.69 and 12.34
[2]; Eggs, 10 μM
  GMI (Geometric Mean Intensity) of Fluorescence, CED-3 Expression: 98.25 and 100.22 and 97.56
[2]; Microfilariae, 10 μM
  GMI (Geometric Mean Intensity) of Fluorescence, CED-3 Expression: 10.99 and 12.38 and 9.95

## CC1=CC(=O)c2c(O)cccc2C1=O [Plumbagin]
[1]; Eggs, 10 μM
  GMI (Geometric Mean Intensity) of Fluorescence, Caspase-3 Activation: 82.35 and 87.32 and 80.16
[1]; Microfilariae, 10 μM
  GMI (Geometric Mean Intensity) of Fluorescence, Caspase-3 Activation: 10.57 and 11.22 and 14.16
[2]; Eggs, 10 μM
  GMI (Geometric Mean Intensity) of Fluorescence, CED-3 Expression: 205.26 and 207.37 and 200.17
[2]; Microfilariae, 10 μM
  GMI (Geometric Mean Intensity) of Fluorescence, CED-3 Expression: 32.75 and 34.96 and 31.33

## CN[C@@H]1C[C@H]2O[C@@](C)([C@@H]1OC)n1c3ccccc3c3c4c(c5c6ccccc6n2c5c31)C(=O)NC4 [Staurosporine]
[1]; Eggs, 1 μM
  GMI (Geometric Mean Intensity) of Fluorescence, Caspase-3 Activation: 50.13 and 54.95 and 50.97
[1]; Microfilariae, 1 μM
  GMI (Geometric Mean Intensity) of Fluorescence, Caspase-3 Activation: 6.20 and 6.72
[2]; Eggs, 1 μM
  GMI (Geometric Mean Intensity) of Fluorescence, CED-3 Expression: 92.71 and 96.07 and 90.32
[2]; Microfilariae, 1 μM
  GMI (Geometric Mean Intensity) of Fluorescence, CED-3 Expression: 8.33 and 8.10 and 7.39
